Measurements from patent publication US20260207578A1, “COMPOUND BASED ON SULFUR/OXYGEN SUBSTITUTED GLUTARIMIDE-BASED ISOINDOLINONE SKELETON AND USE THEREOF” (Gluetacs Therapeutics (Shanghai) Co., LTD., priority 2022, published 2026).

Tests used:
GSPT1 = target: T1, GSPT1 (Homo sapiens, UniProt P15170+Q96SW2); assay: Western-blot assay, substrate protein in hPBMCs; type: cell-based; details: hPBMC cells, 24 hours, tested at 50 nM and 500 nM, table does not say which
T1 construct: endogenous in cells; host or cells: human PBMCs (Milecell Biotechnologies)
T1 sequence (P15170 whole entry): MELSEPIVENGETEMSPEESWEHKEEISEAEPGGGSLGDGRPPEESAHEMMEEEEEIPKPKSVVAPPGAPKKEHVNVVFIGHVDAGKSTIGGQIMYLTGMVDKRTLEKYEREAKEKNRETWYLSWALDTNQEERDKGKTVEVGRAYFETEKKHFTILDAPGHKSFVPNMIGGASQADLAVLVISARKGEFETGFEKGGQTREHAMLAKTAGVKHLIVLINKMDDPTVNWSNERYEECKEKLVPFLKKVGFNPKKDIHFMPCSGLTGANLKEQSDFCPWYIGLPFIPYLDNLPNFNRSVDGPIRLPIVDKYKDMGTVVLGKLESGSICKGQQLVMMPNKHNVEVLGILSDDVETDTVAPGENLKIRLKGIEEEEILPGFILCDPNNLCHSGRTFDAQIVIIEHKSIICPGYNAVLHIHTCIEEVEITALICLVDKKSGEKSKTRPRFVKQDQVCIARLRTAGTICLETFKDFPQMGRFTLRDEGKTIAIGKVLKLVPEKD
T1 sequence (Q96SW2 whole entry): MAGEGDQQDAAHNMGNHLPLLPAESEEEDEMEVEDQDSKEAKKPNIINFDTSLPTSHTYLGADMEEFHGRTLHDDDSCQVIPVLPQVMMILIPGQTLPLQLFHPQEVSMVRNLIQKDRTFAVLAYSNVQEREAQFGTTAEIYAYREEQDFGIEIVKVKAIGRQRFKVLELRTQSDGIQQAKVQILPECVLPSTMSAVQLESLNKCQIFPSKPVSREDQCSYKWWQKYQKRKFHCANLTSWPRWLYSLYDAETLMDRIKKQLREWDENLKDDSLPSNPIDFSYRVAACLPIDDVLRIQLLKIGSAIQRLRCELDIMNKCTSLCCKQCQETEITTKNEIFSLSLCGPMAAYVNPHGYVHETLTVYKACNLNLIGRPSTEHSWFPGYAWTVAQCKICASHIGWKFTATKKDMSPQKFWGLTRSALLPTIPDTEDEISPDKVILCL
T1 sequence (Q16531 whole entry partner): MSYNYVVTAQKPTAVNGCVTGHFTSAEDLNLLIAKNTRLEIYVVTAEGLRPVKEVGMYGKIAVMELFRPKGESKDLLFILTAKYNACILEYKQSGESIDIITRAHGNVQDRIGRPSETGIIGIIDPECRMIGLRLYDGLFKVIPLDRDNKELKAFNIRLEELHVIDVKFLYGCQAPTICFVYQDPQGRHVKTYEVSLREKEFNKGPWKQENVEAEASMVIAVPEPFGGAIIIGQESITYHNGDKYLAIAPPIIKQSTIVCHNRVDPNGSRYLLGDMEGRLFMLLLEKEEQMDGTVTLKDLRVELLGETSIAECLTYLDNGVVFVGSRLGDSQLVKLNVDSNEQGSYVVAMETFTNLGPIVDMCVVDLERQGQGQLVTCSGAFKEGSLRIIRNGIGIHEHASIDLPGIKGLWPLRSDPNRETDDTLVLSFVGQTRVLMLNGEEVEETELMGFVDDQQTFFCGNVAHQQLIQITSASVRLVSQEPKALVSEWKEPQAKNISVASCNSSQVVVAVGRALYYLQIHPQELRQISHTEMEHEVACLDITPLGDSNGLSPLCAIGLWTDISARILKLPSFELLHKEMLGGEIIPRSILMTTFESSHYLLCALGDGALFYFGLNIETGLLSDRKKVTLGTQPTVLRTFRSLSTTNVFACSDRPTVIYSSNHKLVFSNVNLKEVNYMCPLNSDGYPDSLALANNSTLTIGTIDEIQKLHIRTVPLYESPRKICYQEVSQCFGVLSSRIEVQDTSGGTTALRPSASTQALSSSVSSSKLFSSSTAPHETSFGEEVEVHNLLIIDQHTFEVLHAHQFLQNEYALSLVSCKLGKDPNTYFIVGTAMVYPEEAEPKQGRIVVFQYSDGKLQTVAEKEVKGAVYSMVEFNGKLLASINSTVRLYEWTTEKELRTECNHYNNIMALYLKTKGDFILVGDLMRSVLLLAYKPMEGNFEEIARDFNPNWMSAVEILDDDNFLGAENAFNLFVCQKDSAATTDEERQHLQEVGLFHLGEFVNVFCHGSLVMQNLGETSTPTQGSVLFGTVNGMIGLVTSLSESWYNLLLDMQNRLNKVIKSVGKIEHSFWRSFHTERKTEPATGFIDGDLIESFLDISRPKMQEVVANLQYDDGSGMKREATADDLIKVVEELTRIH
In short: (§1)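 Protein levels read by Western blot of lysates from human PBMCs (1×10^6 cells/mL) treated 24 h. Percent remaining is target band over loading-control band, normalised to DMSO-treated cells; DC50 is the concentration halving DMSO-control band intensity, estimated by curve fit.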

Wee1 = target: T2, Wee1 (Homo sapiens, UniProt P30291+Q96SW2); assay: Western-blot assay, substrate protein in hPBMCs; type: cell-based; details: hPBMC cells, 24 hours, tested at 50 nM and 500 nM, table does not say which
T2 construct: endogenous in cells; host or cells: human PBMCs (Milecell Biotechnologies)
T2 sequence (P30291 whole entry): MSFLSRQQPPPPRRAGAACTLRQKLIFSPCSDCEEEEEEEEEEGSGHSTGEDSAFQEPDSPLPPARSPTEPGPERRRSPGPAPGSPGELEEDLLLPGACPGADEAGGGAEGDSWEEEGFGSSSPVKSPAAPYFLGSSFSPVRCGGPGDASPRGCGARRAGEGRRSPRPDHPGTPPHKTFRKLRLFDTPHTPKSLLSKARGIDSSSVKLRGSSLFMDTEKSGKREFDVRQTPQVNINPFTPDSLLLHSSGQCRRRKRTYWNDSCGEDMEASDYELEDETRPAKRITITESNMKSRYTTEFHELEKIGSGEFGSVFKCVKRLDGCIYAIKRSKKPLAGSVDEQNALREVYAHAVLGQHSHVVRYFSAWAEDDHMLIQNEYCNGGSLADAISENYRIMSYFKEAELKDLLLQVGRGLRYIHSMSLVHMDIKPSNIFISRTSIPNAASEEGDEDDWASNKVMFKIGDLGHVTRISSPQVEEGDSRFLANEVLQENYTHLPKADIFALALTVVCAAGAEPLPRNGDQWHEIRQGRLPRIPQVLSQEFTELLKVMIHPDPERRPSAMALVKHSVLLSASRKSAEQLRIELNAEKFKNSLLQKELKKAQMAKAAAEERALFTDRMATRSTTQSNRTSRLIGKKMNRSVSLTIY
T2 sequence (Q96SW2 whole entry): as the sequence (Q96SW2 whole entry) above
T2 sequence (Q16531 whole entry partner): as the sequence (Q16531 whole entry partner) above
In short: as §1

[1] = target: T3, human Cereblon WT GST-tagged protein (Homo sapiens, UniProt Q96SW2); assay: CRBN-binding affinity, HTRF (CEREBLON BINDING kit); details: displacement of Thalidomide-Re reagent, 3 hours at room temperature
T3 construct: purchased CISBIO 64BDCRBNPEH
T3 sequence (Q96SW2 whole entry): as the sequence (Q96SW2 whole entry) above
In short: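 HTRF competition format: compound, GST-tagged wild-type human Cereblon, Thalidomide-Re tracer and GST Eu antibody were combined in PROTAC binding buffer. Binding was derived from emission at 620 nm relative to blank and solvent control wells.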

IKZF3 = target: T4, IKZF3 (Homo sapiens, UniProt Q96SW2+Q9UKT9); assay: Western-blot assay, substrate protein in hPBMCs; type: cell-based; details: hPBMC cells, 24 hours, tested at 50 nM and 500 nM, table does not say which
T4 construct: endogenous in cells; host or cells: human PBMCs (Milecell Biotechnologies)
T4 sequence (Q9UKT9 whole entry): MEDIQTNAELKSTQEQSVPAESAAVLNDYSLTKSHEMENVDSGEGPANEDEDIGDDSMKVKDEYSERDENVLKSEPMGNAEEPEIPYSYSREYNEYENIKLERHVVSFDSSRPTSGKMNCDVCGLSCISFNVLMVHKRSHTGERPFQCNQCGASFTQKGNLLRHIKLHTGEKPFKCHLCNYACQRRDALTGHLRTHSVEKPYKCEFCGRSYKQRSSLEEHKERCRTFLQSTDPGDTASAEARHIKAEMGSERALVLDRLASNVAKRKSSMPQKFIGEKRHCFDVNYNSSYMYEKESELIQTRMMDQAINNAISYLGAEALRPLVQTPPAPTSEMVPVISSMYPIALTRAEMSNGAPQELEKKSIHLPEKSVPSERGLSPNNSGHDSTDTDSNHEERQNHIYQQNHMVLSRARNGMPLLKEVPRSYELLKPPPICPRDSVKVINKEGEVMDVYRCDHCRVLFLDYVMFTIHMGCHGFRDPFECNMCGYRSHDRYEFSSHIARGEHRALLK
T4 sequence (Q96SW2 whole entry): as the sequence (Q96SW2 whole entry) above
T4 sequence (Q16531 whole entry partner): as the sequence (Q16531 whole entry partner) above
In short: (§2)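 hPBMCs (1×10^6 cells/mL) exposed 24 h to compound at 50 nM and 500 nM, lysed, and probed by Western blot. Band grayscale normalized to internal control gives % protein remaining versus DMSO; DC50 from concentration-response fit at half DMSO band intensity.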

IKZF1 = target: T5, IKZF1 (Homo sapiens, UniProt Q13422+Q96SW2); assay: Western-blot assay, substrate protein in hPBMCs; type: cell-based; details: hPBMC cells, 24 hours, tested at 50 nM and 500 nM, table does not say which
T5 construct: endogenous in cells; host or cells: human PBMCs (Milecell Biotechnologies)
In short: as §2

CK1α = target: T6, CK1α (Homo sapiens, UniProt P48729+Q96SW2); assay: Western-blot assay, substrate protein in hPBMCs; type: cell-based; details: hPBMC cells, 24 hours, tested at 50 nM and 500 nM, table does not say which
T6 construct: endogenous in cells; host or cells: human PBMCs (Milecell Biotechnologies)
T6 sequence (P48729 whole entry): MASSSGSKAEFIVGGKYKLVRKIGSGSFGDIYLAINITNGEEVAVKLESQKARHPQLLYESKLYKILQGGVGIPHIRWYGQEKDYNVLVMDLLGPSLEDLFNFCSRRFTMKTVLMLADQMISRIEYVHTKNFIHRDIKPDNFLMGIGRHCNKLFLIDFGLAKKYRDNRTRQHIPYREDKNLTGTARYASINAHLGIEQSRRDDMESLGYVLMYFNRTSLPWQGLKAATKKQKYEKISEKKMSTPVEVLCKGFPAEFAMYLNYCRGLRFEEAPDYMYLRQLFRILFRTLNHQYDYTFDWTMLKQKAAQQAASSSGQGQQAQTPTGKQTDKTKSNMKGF
T6 sequence (Q96SW2 whole entry): as the sequence (Q96SW2 whole entry) above
T6 sequence (Q16531 whole entry partner): as the sequence (Q16531 whole entry partner) above
In short: as §1

IKZF2 = target: T7, IKZF2 (Homo sapiens, UniProt Q96SW2+Q9UKS7); assay: Western-blot assay, substrate protein in hPBMCs; type: cell-based; details: hPBMC cells, 24 hours, tested at 50 nM and 500 nM, table does not say which
T7 construct: endogenous in cells; host or cells: human PBMCs (Milecell Biotechnologies)
T7 sequence (Q9UKS7 whole entry): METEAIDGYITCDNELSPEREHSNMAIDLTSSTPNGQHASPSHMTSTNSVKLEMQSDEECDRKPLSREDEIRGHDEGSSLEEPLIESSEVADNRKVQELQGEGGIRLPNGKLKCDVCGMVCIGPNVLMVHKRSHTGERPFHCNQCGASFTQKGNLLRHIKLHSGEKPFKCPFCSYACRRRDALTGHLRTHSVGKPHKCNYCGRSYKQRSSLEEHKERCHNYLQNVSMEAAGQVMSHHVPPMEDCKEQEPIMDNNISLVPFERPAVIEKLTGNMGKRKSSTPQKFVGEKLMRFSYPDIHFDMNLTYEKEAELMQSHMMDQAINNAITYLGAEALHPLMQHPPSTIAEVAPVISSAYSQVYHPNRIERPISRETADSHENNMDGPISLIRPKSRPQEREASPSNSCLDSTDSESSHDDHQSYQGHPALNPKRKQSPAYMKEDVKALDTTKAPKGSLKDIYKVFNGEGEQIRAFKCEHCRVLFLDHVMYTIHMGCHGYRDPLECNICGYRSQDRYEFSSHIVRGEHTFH
T7 sequence (Q96SW2 whole entry): as the sequence (Q96SW2 whole entry) above
T7 sequence (Q16531 whole entry partner): as the sequence (Q16531 whole entry partner) above
In short: as §1

| SMILES | substrate protein remaining % (GSPT1) | substrate protein remaining % (Wee1) | IC50 [1] | substrate protein remaining % (IKZF3) | substrate protein remaining % (IKZF1) | substrate protein remaining % (CK1α) | substrate protein remaining % (IKZF2) |
| --- | --- | --- | --- | --- | --- | --- | --- |
| CC1(C)CCC(CN2CC(Oc3ccc4c(c3)CN(C3CCC(=O)NC3=O)C4=O)C2)=C(c2ccc(Cl)cc2)C1 (stereo not drawn) [GT-03369, 3-(5-((1-((4′-chloro-5,5-dimethyl-3,4,5,6-tetrahydro-[1,1′-biphenyl]-2-yl)methyl)azetidin-3-yl)oxy)-1-oxoisoindolin-2-yl)piperidine-2,6-dione] | A (0%≤ substrate protein remaining % ≤80%) | A (0%≤ substrate protein remaining % ≤80%) | 500 to 1000 nM | A (0%≤ substrate protein remaining % ≤80%) | A (0%≤ substrate protein remaining % ≤80%) | – | – |
| CC1(C)CCC(CN2CC(Sc3ccc4c(c3)CN(C3CCC(=O)NC3=O)C4=O)C2)=C(c2ccc(F)cc2)C1 (stereo not drawn) [GT-03457, 3-(5-((1-((4′-fluoro-5,5-dimethyl-3,4,5,6-tetrahydro-[1,1′-biphenyl]-2-yl)methyl)azetidin-3-yl)thio)-1-oxoisoindolin-2-yl)piperidine-2,6-dione] | A (0%≤ substrate protein remaining % ≤80%) | – | < 500 nM | A (0%≤ substrate protein remaining % ≤80%) | A (0%≤ substrate protein remaining % ≤80%) | A (0%≤ substrate protein remaining % ≤80%) | A (0%≤ substrate protein remaining % ≤80%) |
| O=C1CCC(N2Cc3cc(OC4CCN(C(c5ccccc5)c5ccccc5)CC4)ccc3C2=O)C(=O)N1 (stereo not drawn) [GT-06195, 3-(5-((1-benzhydrylpiperidin-4-yl)oxy)-1-oxoisoindolin-2-yl)piperidine-2,6-dione] | A (0%≤ substrate protein remaining % ≤80%) | A (0%≤ substrate protein remaining % ≤80%) | < 500 nM | A (0%≤ substrate protein remaining % ≤80%) | A (0%≤ substrate protein remaining % ≤80%) | A (0%≤ substrate protein remaining % ≤80%) | – |
| O=C1CCC(N2Cc3cc(OC4CN(Cc5cnc(-c6ccccc6)cn5)C4)ccc3C2=O)C(=O)N1 (stereo not drawn) [GT-06353, 3-(1-oxo-5-((1-((5-phenylpyrazin-2-yl)methyl)azetidin-3-yl)oxy)isoindolin-2-yl)piperidine-2,6-dione] | A (0%≤ substrate protein remaining % ≤80%) | A (0%≤ substrate protein remaining % ≤80%) | 500 to 1000 nM | A (0%≤ substrate protein remaining % ≤80%) | A (0%≤ substrate protein remaining % ≤80%) | A (0%≤ substrate protein remaining % ≤80%) | – |
| O=C1CCC(N2Cc3cc(OC4CN(CC5=C(c6ccc(Cl)cc6)CCOC5)C4)ccc3C2=O)C(=O)N1 (stereo not drawn) [GT-06354, 3-(5-((1-((4-(4-chlorophenyl)-5,6-dihydro-2H-pyran-3-yl)methyl)azetidin-3-yl)oxy)-1-oxoisoindolin-2-yl)piperidine-2,6-dione] | A (0%≤ substrate protein remaining % ≤80%) | A (0%≤ substrate protein remaining % ≤80%) | < 500 nM | A (0%≤ substrate protein remaining % ≤80%) | A (0%≤ substrate protein remaining % ≤80%) | A (0%≤ substrate protein remaining % ≤80%) | – |
| CC1(C)CC(c2ccc(Cl)cc2)=C(CN2CC(Sc3ccc4c(c3)CN(C3CCC(=O)NC3=O)C4=O)C2)CO1 (stereo not drawn) [GT-06514, 3-(5-((1-((4-(4-chlorophenyl)-6,6-dimethyl-5,6-dihydro-2H-pyran-3-yl)methyl)azetidin-3-yl)thio)-1-oxoisoindolin-2-yl)piperidine-2,6-dione] | A (0%≤ substrate protein remaining % ≤80%) | A (0%≤ substrate protein remaining % ≤80%) | 500 to 1000 nM | A (0%≤ substrate protein remaining % ≤80%) | A (0%≤ substrate protein remaining % ≤80%) | – | A (0%≤ substrate protein remaining % ≤80%) |
| CC1(C)CCC(CN2CC(Sc3cccc4c3CN(C3CCC(=O)NC3=O)C4=O)C2)=C(c2ccc(Cl)cc2)C1 (stereo not drawn) [GT-06515, 3-(4-((1-((4′-chloro-5,5-dimethyl-3,4,5,6-tetrahydro-[1,1′-biphenyl]-2-yl)methyl)azetidin-3-yl)thio)-1-oxoisoindolin-2-yl)piperidine-2,6-dione] | A (0%≤ substrate protein remaining % ≤80%) | A (0%≤ substrate protein remaining % ≤80%) | 500 to 1000 nM | A (0%≤ substrate protein remaining % ≤80%) | A (0%≤ substrate protein remaining % ≤80%) | A (0%≤ substrate protein remaining % ≤80%) | – |
| O=C1CCC(N2Cc3cc(SC4CN(C(c5ccccn5)c5ccccn5)C4)ccc3C2=O)C(=O)N1 (stereo not drawn) [GT-06811, 3-(5-((1-(di(pyridin-2-yl)methyl)azetidin-3-yl)thio)-1-oxoisoindolin-2-yl)piperidine-2,6-dione] | A (0%≤ substrate protein remaining % ≤80%) | A (0%≤ substrate protein remaining % ≤80%) | < 500 nM | A (0%≤ substrate protein remaining % ≤80%) | A (0%≤ substrate protein remaining % ≤80%) | – | A (0%≤ substrate protein remaining % ≤80%) |
| CC1(C)CCC(CN2CC(Oc3ccc4c(c3)C(=O)N(C3CCC(=O)NC3=O)C4)C2)=C(c2ccc(Cl)cc2)C1 (stereo not drawn) [GT-06872, 3-(6-((1-((4′-chloro-5,5-dimethyl-3,4,5,6-tetrahydro-[1,1′-biphenyl]-2-yl)methyl)azetidin-3-yl)oxy)-1-oxoisoindolin-2-yl)piperidine-2,6-dione] | A (0%≤ substrate protein remaining % ≤80%) | A (0%≤ substrate protein remaining % ≤80%) | 1000 to 1900 nM | A (0%≤ substrate protein remaining % ≤80%) | – | A (0%≤ substrate protein remaining % ≤80%) | A (0%≤ substrate protein remaining % ≤80%) |
| O=C1CCC(N2Cc3cc(SC4CC5CN(C(c6ccccc6)c6ccccc6)CC5C4)ccc3C2=O)C(=O)N1 (stereo not drawn) [GT-06922, 3-(5-((2-benzhydryloctahydro-cyclopenta[c]pyrrol-5-yl)thio)-1-oxoisoindolin-2-yl)piperidine-2,6-dione] | A (0%≤ substrate protein remaining % ≤80%) | A (0%≤ substrate protein remaining % ≤80%) | < 500 nM | A (0%≤ substrate protein remaining % ≤80%) | A (0%≤ substrate protein remaining % ≤80%) | A (0%≤ substrate protein remaining % ≤80%) | – |
| CC1(C)CCC(CN2CCC3(CC2)CC(Oc2ccc4c(c2)CN(C2CCC(=O)NC2=O)C4=O)C3)=C(c2ccc(Cl)cc2)C1 (stereo not drawn) [GT-06933, 3-(5-((7-((4′-chloro-5,5-dimethyl-3,4,5,6-tetrahydro-[1,1′-biphenyl]-2-yl)methyl)-7-azaspiro[3.5]nonan-2-yl)oxy)-1-oxoisoindolin-2-yl)piperidine-2,6-dione] | – | A (0%≤ substrate protein remaining % ≤80%) | 1000 to 1900 nM | A (0%≤ substrate protein remaining % ≤80%) | A (0%≤ substrate protein remaining % ≤80%) | – | A (0%≤ substrate protein remaining % ≤80%) |
| CC1(C)CCC(CN2CC(Oc3cccc4c3CN(C3CCC(=O)NC3=O)C4=O)C2)=C(c2ccc(Cl)cc2)C1 (stereo not drawn) [GT-06952, 3-(4-((1-((4′-chloro-5,5-dimethyl-3,4,5,6-tetrahydro-[1,1′-biphenyl]-2-yl)methyl)azetidin-3-yl)oxy)-1-oxoisoindolin-2-yl)piperidine-2,6-dione] | A (0%≤ substrate protein remaining % ≤80%) | – | 500 to 1000 nM | A (0%≤ substrate protein remaining % ≤80%) | A (0%≤ substrate protein remaining % ≤80%) | A (0%≤ substrate protein remaining % ≤80%) | – |
